According to ChEMBL document CHEMBL4630905 (2021):
The source made the active and inactive calls. The calls are words filed in the database; no cut-off is given here.

Columns and labels:
D(4) dopamine receptor = D(4) dopamine receptor (Homo sapiens, UniProt P21917); assay: GPCRScan assay: inhibition of D4; set-up: radioligand conc. used [nm] 0.6 – 1.7, parental cells Stable HEK
[1] = biological target: T1, Bromodomain-containing protein 2 (Homo sapiens, UniProt P25440); assay: BET mutant TR-FRET assay (BRD2 BD1)
T1 sequence (P25440 whole entry, looked up, change not shown): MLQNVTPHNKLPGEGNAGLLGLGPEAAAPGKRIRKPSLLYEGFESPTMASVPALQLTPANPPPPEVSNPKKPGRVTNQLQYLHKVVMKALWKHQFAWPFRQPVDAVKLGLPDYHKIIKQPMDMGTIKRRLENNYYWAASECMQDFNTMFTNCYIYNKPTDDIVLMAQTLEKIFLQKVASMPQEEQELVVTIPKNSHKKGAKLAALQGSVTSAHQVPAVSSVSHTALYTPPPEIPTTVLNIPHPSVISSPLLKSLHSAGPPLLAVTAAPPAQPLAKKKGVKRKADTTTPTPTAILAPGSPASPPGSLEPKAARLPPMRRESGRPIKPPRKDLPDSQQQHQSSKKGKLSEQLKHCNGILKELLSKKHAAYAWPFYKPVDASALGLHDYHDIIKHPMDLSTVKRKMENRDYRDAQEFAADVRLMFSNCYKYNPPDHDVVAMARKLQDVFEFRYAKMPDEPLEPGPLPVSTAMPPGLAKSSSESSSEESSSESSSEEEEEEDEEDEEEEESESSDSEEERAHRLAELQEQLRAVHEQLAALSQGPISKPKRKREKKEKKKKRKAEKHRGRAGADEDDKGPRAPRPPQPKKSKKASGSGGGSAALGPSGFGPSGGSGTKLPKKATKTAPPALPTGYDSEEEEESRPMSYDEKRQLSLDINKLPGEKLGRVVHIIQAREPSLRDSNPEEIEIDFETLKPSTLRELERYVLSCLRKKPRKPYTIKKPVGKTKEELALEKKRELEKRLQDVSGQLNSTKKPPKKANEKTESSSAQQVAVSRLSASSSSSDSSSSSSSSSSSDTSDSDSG

[2] = biological target: T1, Bromodomain-containing protein 2; assay: BET mutant TR-FRET assay (BRD2 BD2)
[3] = biological target: T2, Bromodomain-containing protein 3 (Homo sapiens, UniProt Q15059); assay: BET mutant TR-FRETassay (BRD3 BD1)
T2 sequence (Q15059 2-726 limits assumed, change not shown): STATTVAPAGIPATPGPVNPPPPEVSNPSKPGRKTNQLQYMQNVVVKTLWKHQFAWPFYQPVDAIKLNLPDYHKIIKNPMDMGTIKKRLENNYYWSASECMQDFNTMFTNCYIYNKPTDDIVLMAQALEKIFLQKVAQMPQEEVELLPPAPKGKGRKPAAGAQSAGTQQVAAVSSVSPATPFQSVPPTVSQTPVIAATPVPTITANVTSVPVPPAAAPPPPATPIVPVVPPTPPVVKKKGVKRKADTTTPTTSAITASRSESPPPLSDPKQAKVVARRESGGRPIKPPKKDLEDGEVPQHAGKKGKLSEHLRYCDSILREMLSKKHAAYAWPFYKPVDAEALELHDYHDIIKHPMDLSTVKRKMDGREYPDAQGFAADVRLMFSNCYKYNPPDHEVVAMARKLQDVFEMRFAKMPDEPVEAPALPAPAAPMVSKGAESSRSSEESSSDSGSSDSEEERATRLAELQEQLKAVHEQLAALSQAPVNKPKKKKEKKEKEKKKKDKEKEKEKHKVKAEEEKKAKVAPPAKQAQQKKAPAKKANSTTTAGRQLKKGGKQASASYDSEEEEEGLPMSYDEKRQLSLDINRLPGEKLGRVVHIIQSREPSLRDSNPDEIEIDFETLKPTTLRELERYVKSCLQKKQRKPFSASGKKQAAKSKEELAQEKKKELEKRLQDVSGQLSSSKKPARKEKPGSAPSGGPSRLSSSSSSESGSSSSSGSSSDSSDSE

[4] = biological target: T2, Bromodomain-containing protein 3; assay: BET mutant TR-FRET assay (BRD3 BD2)
[5] = biological target: T3, Bromodomain testis-specific protein (Homo sapiens, UniProt Q58F21); assay: BET mutant TR-FRET assay (BRDT BD1)
[6] = biological target: T3, Bromodomain testis-specific protein; assay: BET mutant TR-FRET assay (BRDT BD2)
MV4-11 = assay: Proliferation assay (MV-4−11 cells); type: functional, cell-based; details: Homo sapiens
HL-60 = assay: Proliferation assay (HL60 cells); type: functional, cell-based; details: Homo sapiens
THP-1 = assay: Proliferation assay (THP-1 cells); type: functional, cell-based; details: Homo sapiens
C-C motif chemokine 2 = C-C motif chemokine 2 (Homo sapiens, UniProt P13500); assay: In vitro inhibition of MCP-1 in Lipopolysaccharide-stimulated human whole blood; type: tissue-based
Tumor necrosis factor = Tumor necrosis factor (Homo sapiens, UniProt P01375); assay: In vitro inhibition of TNFalpha in Lipopolysaccharide-stimulated human whole blood; type: tissue-based
Interleukin-6 = Interleukin-6 (Homo sapiens, UniProt P05231); assay: In vitro inhibition of IL-6 in Lipopolysaccharide-stimulated human whole blood; type: tissue-based
Sequence of Interleukin-6 (P05231 whole entry, the tested form may be a part): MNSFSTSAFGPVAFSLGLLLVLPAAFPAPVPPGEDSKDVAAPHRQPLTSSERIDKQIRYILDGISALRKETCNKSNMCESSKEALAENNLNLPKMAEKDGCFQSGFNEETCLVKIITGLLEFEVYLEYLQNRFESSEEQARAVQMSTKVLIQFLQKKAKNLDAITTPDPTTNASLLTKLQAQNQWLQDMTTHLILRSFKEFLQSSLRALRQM

[7] = biological target: Bromodomain adjacent to zinc finger domain protein 2B (Homo sapiens, UniProt Q9UIF8); assay: BAZ2B DiscoverX BROMOscan
[8] = biological target: Bromodomain-containing protein 1 (Homo sapiens, UniProt O95696); assay: BRD1 DiscoverX BROMOscan
[9] = biological target: Bromodomain-containing protein 7 (Homo sapiens, UniProt Q9NPI1); assay: BRD7 DiscoverX BROMOscan
[10] = biological target: T4, Bromodomain-containing protein 8 (Homo sapiens, UniProt Q9H0E9); assay: BRD8 (BD1) DiscoverX BROMOscan
T4 sequence (Q9H0E9 whole entry): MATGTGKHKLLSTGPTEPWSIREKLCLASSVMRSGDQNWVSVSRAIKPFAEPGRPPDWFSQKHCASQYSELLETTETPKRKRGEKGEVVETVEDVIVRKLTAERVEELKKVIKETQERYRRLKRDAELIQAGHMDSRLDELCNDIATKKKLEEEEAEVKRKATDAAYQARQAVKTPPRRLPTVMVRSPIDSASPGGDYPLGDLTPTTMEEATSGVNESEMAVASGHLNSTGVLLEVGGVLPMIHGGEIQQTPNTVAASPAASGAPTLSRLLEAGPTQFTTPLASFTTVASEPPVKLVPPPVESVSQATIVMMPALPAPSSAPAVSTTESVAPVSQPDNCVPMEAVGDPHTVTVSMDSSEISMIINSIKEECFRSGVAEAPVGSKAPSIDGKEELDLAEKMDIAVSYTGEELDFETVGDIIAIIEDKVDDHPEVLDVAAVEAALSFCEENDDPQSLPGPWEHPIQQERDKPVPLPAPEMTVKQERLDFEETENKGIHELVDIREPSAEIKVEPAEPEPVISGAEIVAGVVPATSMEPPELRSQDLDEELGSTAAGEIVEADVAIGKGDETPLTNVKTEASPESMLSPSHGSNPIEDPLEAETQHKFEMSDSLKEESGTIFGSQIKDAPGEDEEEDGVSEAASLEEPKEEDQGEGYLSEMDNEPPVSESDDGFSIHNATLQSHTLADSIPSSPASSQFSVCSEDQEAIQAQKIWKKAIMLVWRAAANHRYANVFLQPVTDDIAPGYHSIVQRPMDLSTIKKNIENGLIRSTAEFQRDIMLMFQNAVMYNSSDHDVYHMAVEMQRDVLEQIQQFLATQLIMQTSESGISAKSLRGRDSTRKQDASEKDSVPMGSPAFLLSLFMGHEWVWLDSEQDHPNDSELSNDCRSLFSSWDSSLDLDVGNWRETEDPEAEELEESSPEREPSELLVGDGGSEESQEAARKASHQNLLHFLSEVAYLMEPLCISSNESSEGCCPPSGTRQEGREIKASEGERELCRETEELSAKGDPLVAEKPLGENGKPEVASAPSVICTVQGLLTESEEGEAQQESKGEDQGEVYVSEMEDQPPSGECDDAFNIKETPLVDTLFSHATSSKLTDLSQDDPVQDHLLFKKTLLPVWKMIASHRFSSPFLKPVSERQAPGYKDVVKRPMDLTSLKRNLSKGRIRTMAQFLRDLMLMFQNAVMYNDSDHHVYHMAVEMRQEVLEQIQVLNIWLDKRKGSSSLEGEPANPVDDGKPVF

[11] = biological target: T4, Bromodomain-containing protein 8; assay: BRD8 (BD2) DiscoverX BROMOscan
[12] = biological target: Bromodomain-containing protein 9 (Homo sapiens, UniProt Q9H8M2); assay: BRD9 DiscoverX BROMOscan
[13] = biological target: T3, Bromodomain testis-specific protein; assay: BRDT (1,2) DiscoverX BROMOscan
Peregrin = Peregrin (Homo sapiens, UniProt P55201); assay: BRPF1 DiscoverX BROMOscan
[14] = biological target: Bromodomain and PHD finger-containing protein 3 (Homo sapiens, UniProt Q9ULD4); assay: BRPF3 DiscoverX BROMOscan
[15] = biological target: Chromatin remodeling regulator CECR2 (Homo sapiens, UniProt Q9BXF3); assay: CECR2 DiscoverX BROMOscan
CREB-binding protein = CREB-binding protein (Homo sapiens, UniProt Q92793); assay: CREBBP DiscoverX BROMOscan
[16] = biological target: Histone acetyltransferase p300 (Homo sapiens, UniProt Q09472); assay: EP300 DiscoverX BROMOscan
[17] = biological target: Nucleosome-remodeling factor subunit BPTF (Homo sapiens, UniProt Q12830); assay: FALZ DiscoverX BROMOscan
[18] = biological target: Histone acetyltransferase KAT2A (Homo sapiens, UniProt Q92830); assay: GCN5L2 DiscoverX BROMOscan
Protein polybromo-1 = Protein polybromo-1 (Homo sapiens, UniProt Q86U86); assay: PBRM1 (BD2) DiscoverX BROMOscan
[19] = biological target: Histone acetyltransferase KAT2B (Homo sapiens, UniProt Q92831); assay: PCAF DiscoverX BROMOscan
[20] = biological target: SWI/SNF-related matrix-associated actin-dependent regulator of chromatin subfamily A member 2 (Homo sapiens, UniProt P51531); assay: SMARCA2 DiscoverX BROMOscan
[21] = biological target: SWI/SNF-related matrix-associated actin-dependent regulator of chromatin subfamily A member 4 (Homo sapiens, UniProt P51532); assay: SMARCA4 DiscoverX BROMOscan
[22] = biological target: Transcription intermediary factor 1-alpha (Homo sapiens, UniProt O15164); assay: TRIM24 (TIF1alpha) (PHD & BD) DiscoverX BROMOscan
[23] = biological target: E3 ubiquitin-protein ligase TRIM33 (Homo sapiens, UniProt Q9UPN9); assay: TRIM33 (TIF1gamma) (PHD & BD) DiscoverX BROMOscan
[24] = biological target: Bromodomain and WD repeat-containing protein 1 (Homo sapiens, UniProt Q9NSI6); assay: WDR9 (BD2) DiscoverX BROMOscan
[25] = biological target: 5-hydroxytryptamine receptor 1A (Homo sapiens) (UniProt P08908); details: Compound concentration 10.0 uM
[26] = biological target: 5-hydroxytryptamine receptor 1B (Homo sapiens) (UniProt P28222); details: Compound concentration 10.0 uM
[27] = biological target: 5-hydroxytryptamine receptor 1D (Homo sapiens) (UniProt P28221); details: Compound concentration 10.0 uM
[28] = biological target: 5-hydroxytryptamine receptor 2A (Homo sapiens) (UniProt P28223); details: Compound concentration 10.0 uM
[29] = biological target: 5-hydroxytryptamine receptor 2C (Homo sapiens) (UniProt P28335); details: Compound concentration 10.0 uM
[30] = biological target: 5-hydroxytryptamine receptor 3A (Homo sapiens) (UniProt P46098); details: Compound concentration 10.0 uM
[31] = biological target: 5-hydroxytryptamine receptor 5A (Homo sapiens) (UniProt P47898); details: Compound concentration 10.0 uM
[32] = biological target: D(1A) dopamine receptor (Homo sapiens) (UniProt P21728); details: Compound concentration 10.0 uM
[33] = biological target: D(2) dopamine receptor (Homo sapiens) (UniProt P14416); details: Compound concentration 10.0 uM
Sequence of D(2) dopamine receptor (Homo sapiens) (P14416 whole entry): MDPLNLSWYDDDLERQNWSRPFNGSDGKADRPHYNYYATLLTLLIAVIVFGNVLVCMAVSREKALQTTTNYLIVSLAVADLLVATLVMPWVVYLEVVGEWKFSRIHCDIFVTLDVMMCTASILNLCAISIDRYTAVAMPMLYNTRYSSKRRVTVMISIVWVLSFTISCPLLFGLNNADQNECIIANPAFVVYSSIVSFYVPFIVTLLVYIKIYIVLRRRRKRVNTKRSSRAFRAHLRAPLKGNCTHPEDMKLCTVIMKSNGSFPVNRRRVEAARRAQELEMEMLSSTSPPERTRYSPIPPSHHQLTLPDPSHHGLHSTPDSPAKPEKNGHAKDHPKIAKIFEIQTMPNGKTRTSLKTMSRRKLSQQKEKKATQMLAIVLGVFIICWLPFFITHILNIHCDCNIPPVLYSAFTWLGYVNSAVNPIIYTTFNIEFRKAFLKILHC

[34] = biological target: D(3) dopamine receptor (Homo sapiens) (UniProt P35462); details: Compound concentration 10.0 uM
[35] = biological target: D(4) dopamine receptor (Homo sapiens) (UniProt P21917); details: Compound concentration 10.0 uM
Sequence of D(4) dopamine receptor (Homo sapiens) (P21917 whole entry): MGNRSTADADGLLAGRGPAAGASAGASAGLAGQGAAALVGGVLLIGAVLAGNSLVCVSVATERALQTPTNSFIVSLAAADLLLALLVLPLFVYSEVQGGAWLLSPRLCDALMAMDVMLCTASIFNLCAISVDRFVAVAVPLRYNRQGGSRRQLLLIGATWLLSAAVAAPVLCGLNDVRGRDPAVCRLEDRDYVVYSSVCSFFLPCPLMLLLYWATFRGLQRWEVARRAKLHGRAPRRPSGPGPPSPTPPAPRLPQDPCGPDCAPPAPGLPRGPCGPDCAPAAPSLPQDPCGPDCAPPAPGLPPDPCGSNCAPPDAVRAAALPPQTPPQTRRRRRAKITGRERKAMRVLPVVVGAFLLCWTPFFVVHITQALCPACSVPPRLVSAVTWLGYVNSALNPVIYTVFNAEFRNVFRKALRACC

[36] = biological target: D(1B) dopamine receptor (Homo sapiens) (UniProt P21918); details: Compound concentration 10.0 uM
[37] = biological target: Sodium-dependent serotonin transporter (Homo sapiens) (UniProt P31645); details: Compound concentration 10.0 uM
Sequence of Sodium-dependent serotonin transporter (Homo sapiens) (P31645 whole entry, looked up): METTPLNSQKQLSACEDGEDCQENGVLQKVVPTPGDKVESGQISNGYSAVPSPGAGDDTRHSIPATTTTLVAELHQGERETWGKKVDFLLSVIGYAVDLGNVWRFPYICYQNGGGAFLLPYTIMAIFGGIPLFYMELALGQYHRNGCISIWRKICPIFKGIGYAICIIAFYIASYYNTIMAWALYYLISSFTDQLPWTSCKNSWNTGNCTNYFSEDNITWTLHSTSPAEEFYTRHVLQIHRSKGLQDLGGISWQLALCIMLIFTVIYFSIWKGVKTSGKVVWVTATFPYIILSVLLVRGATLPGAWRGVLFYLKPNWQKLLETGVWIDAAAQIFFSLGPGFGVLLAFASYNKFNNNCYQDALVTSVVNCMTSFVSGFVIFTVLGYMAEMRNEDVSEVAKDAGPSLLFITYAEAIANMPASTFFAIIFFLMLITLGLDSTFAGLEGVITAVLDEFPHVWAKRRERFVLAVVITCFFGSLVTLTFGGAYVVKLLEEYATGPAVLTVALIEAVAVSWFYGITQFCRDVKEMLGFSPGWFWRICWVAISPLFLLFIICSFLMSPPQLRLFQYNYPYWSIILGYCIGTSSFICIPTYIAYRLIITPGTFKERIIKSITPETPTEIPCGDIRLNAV

[38] = biological target: Sodium-dependent noradrenaline transporter (Homo sapiens) (UniProt P23975); details: Compound concentration 10.0 uM
[39] = biological target: Sodium-dependent dopamine transporter (Homo sapiens) (UniProt Q01959); details: Compound concentration 10.0 uM
[40] = biological target: T5, GABA-A receptor; anion channel (Rattus norvegicus) (UniProt O09028+P15431+P18506+P18508+P19969+P20236+P23574+P23576+P28471+P28473+P30191+P62813+P63079+P63138+Q91ZM7+Q9ES14); details: Compound concentration 10.0 uM
[41] = biological target: Histamine H1 receptor (Homo sapiens) (UniProt P35367); details: Compound concentration 10.0 uM
Sequence of Histamine H1 receptor (Homo sapiens) (P35367 whole entry): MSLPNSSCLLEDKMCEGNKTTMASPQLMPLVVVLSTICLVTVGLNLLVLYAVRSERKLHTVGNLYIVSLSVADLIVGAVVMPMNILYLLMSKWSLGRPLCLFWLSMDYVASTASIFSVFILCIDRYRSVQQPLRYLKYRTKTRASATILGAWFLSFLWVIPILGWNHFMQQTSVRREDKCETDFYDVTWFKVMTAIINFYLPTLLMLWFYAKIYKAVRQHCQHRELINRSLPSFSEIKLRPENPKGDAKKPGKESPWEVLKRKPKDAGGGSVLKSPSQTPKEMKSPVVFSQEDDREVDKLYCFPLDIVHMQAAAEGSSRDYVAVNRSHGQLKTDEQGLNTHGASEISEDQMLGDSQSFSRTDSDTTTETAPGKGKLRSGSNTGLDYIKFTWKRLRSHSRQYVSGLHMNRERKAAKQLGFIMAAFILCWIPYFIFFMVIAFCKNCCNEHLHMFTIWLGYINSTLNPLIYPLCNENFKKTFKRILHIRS

[42] = biological target: Histamine H2 receptor (Homo sapiens) (UniProt P25021); details: Compound concentration 10.0 uM
[43] = biological target: Histamine H3 receptor (Homo sapiens) (UniProt Q9Y5N1); details: Compound concentration 10.0 uM
[44] = biological target: Histamine H4 receptor (Homo sapiens) (UniProt Q9H3N8); details: Compound concentration 10.0 uM
[45] = biological target: Alpha-1A adrenergic receptor (Homo sapiens) (UniProt P35348); details: Compound concentration 10.0 uM
[46] = biological target: Alpha-1B adrenergic receptor (Homo sapiens) (UniProt P35368); details: Compound concentration 10.0 uM
[47] = biological target: Alpha-2A adrenergic receptor (Homo sapiens) (UniProt P08913); details: Compound concentration 10.0 uM
[48] = biological target: Alpha-2B adrenergic receptor (Homo sapiens) (UniProt P18089); details: Compound concentration 10.0 uM
[49] = biological target: Alpha-2C adrenergic receptor (Homo sapiens) (UniProt P18825); details: Compound concentration 10.0 uM
[50] = biological target: Beta-1 adrenergic receptor (Homo sapiens) (UniProt P08588); details: Compound concentration 10.0 uM
[51] = biological target: Beta-2 adrenergic receptor (Homo sapiens) (UniProt P07550); details: Compound concentration 10.0 uM
[52] = biological target: Muscarinic acetylcholine receptor M1 (Homo sapiens) (UniProt P11229); details: Compound concentration 10.0 uM
[53] = biological target: Muscarinic acetylcholine receptor M2 (Homo sapiens) (UniProt P08172); details: Compound concentration 10.0 uM
[54] = biological target: Muscarinic acetylcholine receptor M4 (Homo sapiens) (UniProt P08173); details: Compound concentration 10.0 uM
[55] = biological target: Muscarinic acetylcholine receptor M5 (Homo sapiens) (UniProt P08912); details: Compound concentration 10.0 uM
[56] = biological target: Beta-3 adrenergic receptor (Homo sapiens) (UniProt P13945); details: Compound concentration 10.0 uM
[57] = biological target: T5, GABA-A receptor; anion channel (Rattus norvegicus); details: Compound concentration 10.0 uM; remark: listed apart in the source
Rattus norvegicus = organism: Rattus norvegicus; details: Compound concentration 10.0 uM
[58] = biological target: Alpha-1D adrenergic receptor (Homo sapiens) (UniProt P25100); details: Compound concentration 10.0 uM
[59] = biological target: Sigma intracellular receptor 2 (Homo sapiens) (UniProt Q5BJF2); details: Compound concentration 10.0 uM

Sequence of D(4) dopamine receptor (P21917 whole entry): as the sequence (P21917 whole entry) above

Ki (D(4) dopamine receptor; read-out: Ki): 1.01 µM
Ki (D(4) dopamine receptor; read-out: pKi (converted)): 1.01 µM
pIC50 [1]: 7
pIC50 [2]: 4.7
pIC50 [3]: 6.8
pIC50 [4]: 4.7
pIC50 [5]: 6.2
pIC50 [6]: 4.9
IC50 (MV4-11): 0.125 µM (active)
IC50 (HL-60): 0.39 µM (active)
IC50 (THP-1): 0.258 µM (active)
IC50 (C-C motif chemokine 2): 0.67 µM (active)
IC50 (Interleukin-6): 3.55 µM (active)
Kd [7]: 31.6 µM
Kd [8]: 31.6 µM
Kd [9]: 25.1 µM
Kd [10]: 31.6 µM
Kd [11]: 31.6 µM
Kd [12]: 31.6 µM
Kd [13]: 0.1 µM
Kd (Peregrin): 31.6 µM
Kd [14]: 31.6 µM
Kd [15]: 31.6 µM
Kd (CREB-binding protein): 31.6 µM
Kd [16]: 25.1 µM
Kd [17]: 31.6 µM
Kd [18]: 31.6 µM
Kd (Protein polybromo-1): 31.6 µM
Kd [19]: 31.6 µM
Kd [20]: 31.6 µM
Kd [21]: 31.6 µM
Kd [22]: 31.6 µM
Kd [23]: 31.6 µM
Kd [24]: 31.6 µM
inhibition [25]: 17.3%
inhibition [26]: 3.37%
inhibition [27]: -6.42%
inhibition [28]: -5.01%
inhibition [29]: 14%
inhibition [30]: 31.8%
inhibition [31]: 24.1%
inhibition [32]: 27.3%
inhibition [33]: -4.38%
inhibition [34]: 9.01%
inhibition [35]: 97.9%
inhibition [36]: 33.2%
inhibition [37]: 17.7%
inhibition [38]: 30.5%
inhibition [39]: 28.5%
inhibition [40]: 14.8%
inhibition [41]: -0.72%
inhibition [42]: -1.12%
inhibition [43]: -9.93%
inhibition [44]: 15.9%
inhibition [45]: 25.2%
inhibition [46]: 11.8%
inhibition [47]: -3.97%
inhibition [48]: -0.37%
inhibition [49]: 8.58%
inhibition [50]: 1.68%
inhibition [51]: 19.8%
inhibition [52]: -9.42%
inhibition [53]: 0.27%
inhibition [54]: 17.1%
inhibition [55]: 16.3%
inhibition [56]: 13.8%
inhibition [57]: 24.7%
inhibition (Rattus norvegicus): 3.9%
inhibition [58]: 36.6%
inhibition [59]: 9.26%
SMILES: Cc1cc2c(-c3ccco3)cnc(N[C@@H]3CCN(C)C[C@H]3C(=O)NC3CCCCC3)c2[nH]c1=O [GSK789]
IC50 (Tumor necrosis factor): 0.87 µM (active)
